Assay results: patent US9040673B2, “Synthesis and identification of novel RSK-specific inhibitors” (University of Virginia Patent Foundation, priority 2009, dated 2015)

Columns and labels:
HUVEC cells = experiment: HUVEC cell growth; assay type: cell-based, human
VCAM = experiment: LPS-induced VCAM expression in HUVEC cells; assay type: cell-based, human; conditions: 1 μg/ml LPS, 24 hours
Text: Twenty-four hours after LPS treatment, the cells were harvested with SDS lysis buffer in preparation for SDS-PAGE and immunoblot analysis. Lysates were normalized with regard to protein concentration. Equivalent loading was confirmed by use of an anti-Ran immunoblot.

[1] = system: RSK activity (eEF2 phosphorylation); experiment: eEF2 phosphorylation in J774A.1 macrophages; assay type: cell-based, murine; conditions: J774A.1 cells
Text: The translocation step in mRNA translation is mediated by eEF2. […] This phosphorylation is produced by a highly specific kinase, EF2 kinase (EF2K). RSK phosphorylates and inactivates EF2K in response to mitogenic stimulations, which leads to a decrease in eEF2 phosphorylation (Wang, et al. Embo J 20:4370-9). Under conditions in which RSK activity is low, as during serum deprivation, eEF2 is phosphorylated by the active EF2K. However, stimulation of RSK activity by mitogens such as phorbol dibutyrate (PDB) results in reduced phosphorylation of eEF2 due to inactivation of EF2K by RSK. Therefore, the phosphorylation state of eEF2 is an indicator of RSK activity. […] The levels of total eEF2 were not altered by any of the treatments.

[2] = system: pp 140, a known RSK substrate; experiment: pp 140 phosphorylation in HUVEC cells; assay type: cell-based, human; conditions: 60 μM, 2 hr; with or without 500 nM phorbol dibutyrate
Procedure: HUVEC cells were seeded at a density of 3×10^5 cells per 35 mm dish and were maintained in complete growth medium. […] The cells were harvested and lysates prepared for SDS-PAGE and immunoblot analysis. The phosphorylation state of pp 140 was determined using a phosphospecific antibody generated against the phosphorylated peptide—LAS(P)TND.

CaLu-1 cells = experiment: CaLu-1 wound migration assay; assay type: cell-based, human; conditions: 60 μM, 24 hr after wounding
Procedure: CaLu-1 cells were sub-cultured to confluence in 35-mm plates. […] Scratches were made in the monolayer of cells using sterile, disposable micropipette tips. Images were captured either immediately following the wounding, 6 hr, or 24 hours after wounding. At the point of wounding, the cells at the wound edge show increased light refraction indicating damage. By 6 hr after wounding, the vehicle-treated cells at the wound edge present wide lamella (indicated by arrows) extending toward the direction of the wound. […] At 24 hr, the vehicle-treated cells have migrated into the wound and are enlarged to re-form the confluent monolayer.

[3] = system: mouse primary peritoneal macrophages; experiment: LPS-induced iNOS expression in primary peritoneal macrophages; assay type: cell-based; conditions: 60 μM, 1 μg/ml LPS, 24 hours
[4] = system: human umbilical vein endothelial cells (HUVEC); experiment: HUVEC wound migration assay; assay type: cell-based; conditions: 60 μM, 1 hr prior to wounding; up to 20 hr
Text: In these experiments, HUVEC were cells were subcultured to confluence in 35-mm plates. […] Scratches were made in the monolayer of cells using sterile, disposable micropipette tips. Images were captured—2 hr, 10 hr, and 20 hr after wounding. By 10 hr after wounding, the vehicle-treated cells at the wound edge have migrated toward the wound. Gaps in the monolayer behind the wound edge are apparent. The SL0101-treated cells have recovered from the wounding, however they show little signs of polarization toward the wound and no involvement of the cells behind the wound edge. At 20 hr, the vehicle-treated cells have migrated into the wound yet the gaps are still present behind the wound edge. The cells at the wound edge in the SL0101-treated well appear to have increased in size to fill the wound rather than migrate into the wound and the monolayered cells behind the wound edge remain tightly packed unlike the vehicle-treated cells. Accordingly the data support the premise that RSK inhibitors are useful tools to stop endothelial cell migration.

MCF-10A cells = experiment: MCF-10A cell proliferation; assay type: cell-based, human; conditions: 50 μM (FIG. 8A)
Procedure: The cell number was measured after 48 h of treatment. Values given are the fold proliferation as a percentage of that observed with vehicle-treated cells. Points, mean (n=2 in quadruplicate); bars=SD.
FIGS. 8A-8D SL0101-1 inhibits the proliferation of cancer cells but not normal cells. […] Cell viability was measured at indicated time points. Proliferation assays were conducted using CellTiter-Glo Luminescent Cell Viability Assay (Promega), performed 44 hrs after treatment for FIGS. 8A &B and at indicated points for FIG. 8C. The data are expressed relative to time 0.
Cell Culture. For proliferation studies cells were seeded at 2500 to 5000 cells per well in 96 well tissue culture plates in the appropriate medium as described by American Type Culture Collection. After 24 hr, the medium was replaced with medium containing compound or vehicle as indicated. Cell viability was measured at indicated time points using CellTiter-Glo™ assay reagent (Promega) according to manufacturer's protocol. For in vivo inhibition studies, cells were seeded at 2.5×10^5 cells/well in 12 well cell culture clusters. After 24 hr, the cells were serum starved for 24 hr then incubated with compound or vehicle for 3 hr prior to a 30 min PDB stimulation. Cells were lysed as previously described (J. Biol. Chem. 273, 13317-13323 (1998)). The lysates were normalized for total protein, electrophoresed and immunoblotted. For cell imaging, Ha-Ras-transformed NIH/3T3 cells were seeded on LABTEK II chamber slides (Nalge) at a density of 1×10^4 cells/well. After 24 hr, fresh medium was added the indicated compounds or vehicle. Images were taken 48 hr after treatment at a magnification of 20×.

Y. pseudotuberculosis = assay type: cell-based, Yersinia pseudotuberculosis; conditions: 60 μM, liquid LB medium
[5] = system: Yersinia pseudotuberculosis; assay type: cell-based; conditions: 60 μM, 4 hours prior to infection (MOI=25)
macrophages = assay type: cell-based
J774A.1 cells = experiment: LPS-stimulated factor expression in J774A.1 cells (immunoblot); assay type: cell-based, murine; conditions: 60 μM, 1 μg/ml LPS, 24 hours
Text: FIGS. 2A & 2B Analysis of LPS stimulated cytokine expression. […] Reactions were terminated with 2×-SDS lysis buffer at indicated time points and the lysates were immunoblotted.
FIGS. 3A & 3B RSK inhibition abrogates LPS-induced iNOS expression. […] Twenty-four hours after treatment, reactions were terminated with 2×-SDS lysis buffer and the lysates were immunoblotted.
LPS activation of macrophages results in secretion of factors that stimulate the innate immune system. […] Twenty-four hours after LPS treatment the cells were lysed as previously described (Traish, et al., 1998. J. Biol. Chem. 273:13317-13323) in preparation for immunoblot analysis. Expression of the pro-inflammatory factors, TNFα, IL-1b, the anti-inflammatory factor, IL-10 and inducible nitric oxide synthase was examined by immunoblot of the cell lysates.

Compound: CC(=O)O[C@@H]1[C@@H](OC(C)=O)[C@@H](O)[C@H](Oc2c(-c3ccc(O)cc3)oc3cc(O)cc(O)c3c2=O)O[C@H]1C [SL0101, kaempferol 3-O-(3″,4″-di-O-acetyl-α-L-rhamnopyranoside)]
- rate of HUVEC cell growth (HUVEC cells): does not alter the rate of HUVEC cell growth
- expression of VCAM (VCAM): reduced expression of the angiogenesis marker VCAM in a dose-dependent manner
- peEF2 levels [1]: increases peEF2 levels
- phosphorylation of pp 140 [2]: reduced the phosphorylation of pp 140
- migration of Calu-1 cells into wound (CaLu-1 cells): have not migrated to close the wound
- LPS-induced iNOS expression [3]: abrogates iNOS expression
- migration of HUVEC into wound [4]: reduce the ability of the cells to migrate
- proliferation of MCF-10A cells (MCF-10A cells): no effect on the growth
- direct effect on growth of Y. pseudotuberculosis (Y. pseudotuberculosis): does not directly affect the growth
- live bacteria extracted from treated macrophages [5]: fewer live bacteria are extracted
- Y. pseudotuberculosis-induced actin rearrangement (macrophages): actin rearrangement is not observed
- LPS-induced iNOS expression (J774A.1 cells): abrogated the induction of iNOS expression
- expression of TNFα, IL-1b, IL-10 (J774A.1 cells): did not alter the expression
